# pIC50: −log10 of the molar value. “And” between values parts separate entries of the source, which are not always exact repeats. Equal entries are not always repeated.
# Test system: S. typhi GFP reporter counter-screen, fluorescence, 4 h
# Experiment: S. typhi counter-screen signal inhibition – fluorescence, 4 h, counter-screen for PhoP regulon inhibitor project, dose response (AID 2384)
row,Compound,pIC50
1,C=C1c2c(Cl)ccc(O)c2C(O)=C2C(=O)[C@]3(O)C(O)=C(C(N)=O)C(=O)[C@@H](N(C)C)[C@@H]3[C@@H](O)C12 (some centres not stated),6.62
2,C#CCOCCOCCOCCNc1nc(N2CCN(C(=O)[C@H](Cc3cc4ccccc4[nH]3)n3cc([C@@H](N)CC(C)C)nn3)CC2)nc(N2CCN(C(=O)[C@H](Cc3cc4ccccc4[nH]3)n3cc([C@@H](N)CC(C)C)nn3)CC2)n1,4.72
3,Clc1c(OCCCn2ccnc2)ccc2ccccc12,4.12
4,CN1CCN(C(c2ccc(Cl)cc2)c2cc(Cl)c3cccnc3c2O)CC1 (configuration not stated),4.71
5,CN(C)[C@@H]1C(=O)C(C(N)=O)=C(O)[C@@]2(O)C(=O)C3=C(O)c4c(O)cccc4[C@@](C)(O)C3[C@H](O)C12 (some centres not stated),6.51 and 5.75
6,Nc1cc(=O)[nH]c(=S)n1-c1cccc(C(F)(F)F)c1,3.84
7,CN(CCOc1ccc(Cl)cc1)CC(O)c1ccccc1 (configuration not stated),3.90
8,O=C(NCCCN1CCN(c2ccc(F)cc2)CC1)Nc1ccc([N+](=O)[O-])cc1,4.13
9,O=C(Nc1nnc(-c2cccs2)o1)c1cccc(F)c1,4.54
10,CN(C)CCCNc1c2ccccc2nc2ccccc12,4.39
11,Cc1ccc2nc(N(CCCN(C)C)C(=O)c3ccc4c(c3)CCCC4)sc2c1,4.50
12,CCOC(=O)N/N=C\c1ccc([N+](=O)[O-])o1,4.51
13,COc1ccc(C(=O)NC(=S)NNC(=O)c2cnccn2)cc1,4.33
14,Cc1ccc(NC(=O)CN(C)C2CCCCC2)cc1Br,4.38
15,CCCCCCOC(=O)C[N+](C)(C)CCOC1CC2CCC1(C)C2(C)C (configuration not stated),4.57
16,O=C(N/N=C/c1ccccc1O)C1SCCCS1,4.14
17,CN1C(=O)NC(c2cccc(O)c2)C(C(=O)c2cccs2)C1(O)C(F)(F)F (configuration not stated),4.61
18,COc1cccc(-c2nnc(NC(=O)c3ccc(Cl)s3)o2)c1,4.34
19,O=[N+]([O-])c1cc([N+](=O)[O-])c2cccnc2c1Oc1ccccc1O,4.38
20,COc1cc2c(cc1O)[C@H](Cc1ccc(Oc3cc(C[C@@H]4NCCc5cc(OC)c(O)cc54)ccc3O)cc1)NCC2,4.19
21,Oc1ccc(C[C@@H]2CNCCN2CCCCC2CCCCC2)cc1,4.43
22,O=C(N/N=C/c1ccccc1O)c1ccncc1,4.69
23,CCC[C@H](CN[C@@H](CNC)[C@H](C)CC)NCCc1cc(C(F)(F)F)cc(C(F)(F)F)c1,4.60
24,COc1ccc(C(C[N+](=O)[O-])C2(c3ccc(OC)c(OC)c3)C(=O)c3ccccc3C2=O)cc1 (configuration not stated),4.74
25,O[C@@H](c1cc(C(F)(F)F)nc2c(C(F)(F)F)cccc12)[C@H]1CCCCN1,4.42
26,CN1CCCN(C(c2ccccc2)c2ccc(Cl)cc2)CC1 (configuration not stated),4.42

row,Compound,pIC50
1,O=C(Cn1nc(CNc2ccc(Br)cc2)[n+]2c1CCCCC2)c1ccc([N+](=O)[O-])cc1,4.46
2,N=c1c2c(n(Cc3cccc(Cl)c3)c3c1CCC3)CCCC2,4.32
3,C#CCOCCOCCOCCNc1nc(N2CCN(C(=O)CCCCCCCCCCNC(=O)[C@H]([C@@H](C)CC)n3cc(CCCCCN)nn3)CC2)nc(N2CCN(C(=O)CCCCCCCCCCNC(=O)[C@H]([C@@H](C)CC)n3cc(CCCCN=C(N)N)nn3)CC2)n1,4.60
4,CCn1cc(C(=O)O)c(=O)c2cc(F)c(N3CCN(C(=S)NC(=O)c4ccccc4)CC3)cc21,4.11
5,Oc1ccc(CN2CCN(c3ccccc3)CC2)c2cccnc12,4.00
6,O=C1OCCN1/N=C/c1ccc([N+](=O)[O-])o1,4.55
7,Cc1cc(/C=C\c2ccc3cc(N(C)C)ccc3[n+]2C)c(C)n1-c1ccccc1,4.66
8,CN(C)CC/C=C1\c2ccccc2Sc2ccc(Cl)cc21,4.22
9,O=[N+]([O-])c1ccc(/C=[N+](\[O-])CCO)o1,4.05
10,Cc1cc(OCC(O)CNC(C)c2ccccc2)ccc1C(C)C (configuration not stated),4.42
11,O=C(N/N=C/c1cc(Cl)ccc1O)c1ccncc1,4.76
12,CN1CCN(/N=C/c2c3ccccc3c(Cl)c3ccccc23)CC1,4.13
13,O=C1c2cccc3cccc(c23)C(=O)C1(O)O,4.77
14,C/C(=N\NC(=O)c1ccc(Cl)cc1)c1ccccn1,4.54
15,CCCNC(=O)c1cn(CC)c2cc(N3CCN(C)CC3)c(F)cc2c1=O,4.51
16,CCCCCC(=O)NNC(=S)NC(C)=O,4.54
17,C#CCOCCOCCOCCNc1nc(N2CCN(C(=O)CCCCCCCCCCNC(=O)[C@H]([C@@H](C)CC)n3cc(CCCCN=C(N)N)nn3)CC2)nc(N2CCN(C(=O)CCCCCCCCCCNC(=O)[C@H](CO)n3cc(CCCCCN)nn3)CC2)n1,4.45
18,CCCC(=O)NC(c1ccco1)c1cc([N+](=O)[O-])c2cccnc2c1O (configuration not stated),4.60
19,O=C1CN(/N=C/c2ccc([N+](=O)[O-])o2)C(=O)N1,4.38
20,CCN(CC)c1ccc(CNc2nc3ccccc3n2CCN2CCCCC2)cc1,4.36
21,Nc1nc2ccccc2n1CCOc1ccccc1Cl,4.39
22,Clc1ccc(CNCc2cccs2)cc1Cl,4.34
23,CN1CCN(c2cc3c(cc2F)c(=O)c(C(=O)O)cn3CCF)CC1,5.97
24,CCCCCCCCCCOC(=O)C[N+](C)(C)CC1CCCCC1O (configuration not stated),4.42
25,CCCCCCCCC[n+]1cccc2c3ccccc3ccc21,4.82
26,CO[C@H]1C=CO[C@@]2(C)Oc3c(C)c(O)c4c(O)c(c5c(c4c3C2=O)NC2(CCN(CC(C)C)CC2)N=5)=NC(=O)C(C)=CC=C[C@H](C)[C@H](O)[C@@H](C)[C@@H](O)[C@@H](C)[C@H](OC(C)=O)[C@@H]1C,5.66

row,Compound,pIC50
1,CN1CCN(C2Cc3ccc(Cl)cc3Sc3ccc(F)cc32)CC1 (configuration not stated),4.70
2,CN1CCN(C(=O)CSc2ccc(Cl)cc2)CC1,3.95
3,CC[n+]1c(/C=C/C=C/c2ccc(N(C)C)cc2)sc2ccccc21,3.89
4,O=C(Nc1nccs1)c1ccc(Cl)cc1[N+](=O)[O-],4.01
5,Cc1ccc2c(c1)sc(-c1ccc(N(C)C)cc1)[n+]2C,4.45
6,COc1ccc(CNCCc2ccc(Cl)cc2)cc1OCc1ccccc1,4.16
7,Cc1c(Cl)cccc1Nc1nc(NCCO)c2ccccc2n1,4.40
8,N#C/C(=N\Nc1ccc([N+](=O)[O-])cc1)C(N)=S,3.97
9,Clc1cccc(CN2CCc3c([nH]c4ccccc34)C2)c1Cl,3.87
10,c1ccc2c(c1)CCc1ccccc1C2=C1CCNCC1,4.23
11,CCCCn1c(NS(=O)(=O)c2ccccc2)c(C(=O)OCC)c2nc3ccccc3nc21,4.23
12,C[N+]12CN3CN(CN(C3)C1)C2,4.16
13,CCCCCCCCCCC[N+](C)(C)CC/C=C1/c2ccccc2Sc2ccc(Cl)cc21,4.27
14,N#C/C(=C(/O)c1ccco1)c1nc2ccccc2s1,4.24
15,NCCCCCc1nnc(SCc2ccc(Cl)cc2Cl)o1,4.01
16,O=C(CSc1nnc(-c2ccccc2)n1-c1ccc(Cl)cc1)NC1CCS(=O)(=O)C1 (configuration not stated),4.35
17,S=C(Nc1ccc(Cl)c(Cl)c1)NC1CCN(Cc2ccccc2)CC1,4.42
18,CC(C)(C)CC(C)(C)c1ccc(OCCOCC[N+](C)(C)Cc2ccccc2)cc1,4.67
19,CN1C(=O)NC(c2ccc(O)cc2)C(C(=O)c2cccs2)C1(O)C(F)(F)F (configuration not stated),4.72
20,CCCCOc1ccc(NC2=NC3(CCCCC3)N=C(N)N2)cc1,4.46
21,CCn1cc(C(=O)O)c(=O)c2ccc(C)nc21,4.08
22,O=C(N[C@H](CO)[C@H](O)c1ccc([N+](=O)[O-])cc1)C(Cl)Cl,5.80
23,CN1CCN(CCCN2c3ccccc3Sc3ccc(Cl)cc32)CC1,4.38 and 4.62
24,Cc1ccc(C)c(NC(=O)c2ccccc2O)c1,4.24
25,CCCCCCCCCCOC(=O)Cn1c(COc2ccc(C)cc2)[n+](C)c2ccccc21,4.74

# From PubChem BioAssay AID2384 (Southern Research Specialized Biocontainment Screening …, 2010)
